Patent US20060205673A1, “2-Amino-3-hydroxy-4-tert-leucyl-amino-5-phenyl-pentanoic acid amide derivatives” (priority 2000, published 2006)

Target: T1, purified human placenta 20S proteasome (Homo sapiens, UniProt P28074)
T1 construct: 1 μl purified human placenta 20S proteasome; tissue Diabetes Forschungsinstitut, Düsseldorf, Germany; host or cells: human placenta
Experiment: Inhibition of the chymotrypsin-like activity of the 20S proteasome (Suc-LLVY-AMC hydrolysis)
Format: biochemical
Conditions: Suc-LLVY-AMC substrate, 60 min preincubation at room temperature, Table 1
Text: It is based on the hydrolysis of the fluorogenic peptide Suc-LLVY-AMC (Succinyl-leucine-leucine-valine-tyrosine-7-amino-4-methyl-coumarin), which is cleaved exclusively at the Y-AMC bond by the 20S proteasome. Hydrolysis of this peptide is accompanied by an increase in fluorescence intensity [λex (excitation wavelength): 355 nm; λem (emission wavelength): 460 nm] due to release of the internally quenched […] fluorescence that accompanies diffusion apart of the hydrolysis product Suc-LLVY.
2 μl of a 1 mM solution of a test compound in DMSO (dimethylsulfoxide, 20 μM final concentration in the well) are preincubated for 60 min at room temperature in black 96-well microtiter plates together with a mixture of 1 μl purified human placenta 20S proteasome (Diabetes Forschungsinstitut, Düsseldorf, Germany; about 100 ng proteasome, depending on the proteasome preparation) and 47 μl buffer-Ca [5 mM CaCl2, 20 mM Tris/HCl (Tris-(hydroxymethyl)-amino-methane hydrochloride) pH 8.0]. 3 μl of a 2.67 mM solution of Suc-LLVY-AMC (Bachem, Switzerland) in DMSO (80 μM final concentration in the well) and 47 μl buffer-Ca are mixed and added. The resulting mixture is incubated for 3-24 h at 37° C. If desired, proteolysis of the substrate can be stopped by addition of 50 μl stop solution (100 mM monochloroacetic acid, 130 mM NaOH, 100 mM acetic acid, pH=4.3). The fluorescence is monitored with a FLUOROSKAN ASCENT™ microtiter plate reader.
To each measure series two control experiments have to be carried out:
1.) 0% value: 2 μl DMSO are used in the above described assay instead of 2 μl of a 1 mM solution of a test compound in DMSO and 48 μl buffer-Ca instead of a mixture of 47 μl buffer-Ca and 1 μl purified proteasome.
2.) 100% value: in the above described assay 2 μl DMSO are used instead of 2 μl of a 1 mM solution of the test compound in DMSO.
The IC50 value is defined as that concentration of a compound at which the remaining activity is 50%.

IC50: 260 nM
Structure (SMILES): COc1ccc(CNC(=O)[C@@H](NC(=O)[C@H](NCc2cccc3ccccc23)[C@H](O)[C@H](Cc2ccccc2)NC(=O)[C@@H](NC(=O)OCc2ccccc2)C(C)(C)C)C(C)C)c(O)c1 [Example 1, ((S)-1-{(1S,2R,3R)-1-Benzyl-2-hydroxy-3-[(S)-1-(2-hydroxy-4-methoxy-benzylcarbamoyl)-2-methyl-propylcarbamoyl]-3-[(naphthalen-1-ylmethyl)-amino]-propylcarbamoyl}-2,2-dimethyl-propyl)-carbamic acid benzyl ester]
